Assay results published in patent US10561704B2, “Compositions and methods for treating neuropsychiatric disorders using an endothelin-B receptor agonist” (MIDWESTERN UNIVERSITY, priority 2013, dated 2020).
Where two headings read alike, the source gives them in different places. *1 amine or outer side, *2 acyl side, *3 side chain or, on linkers, in order; H or OH if unused. Where no end group is shown, it is not given here. Suc = O=C(CCC(=O)[*:2])[*:1]

Columns and labels:
[1] = system: middle cerebral artery occluded rats; test: Infarct volume and edema 7 days post middle cerebral artery occlusion; type: in vivo
Procedure: FIG. 12: Two mm coronal sections of brains stained with TTC to visualize the infarct area 7 days post middle cerebral artery occlusion (red indicates normal tissue and white indicates infarct tissue). Representative slices from groups are shown. IRL-1620 (5 μg/kg, IV) or isotonic saline (1 ml/kg, IV) was injected at 2, 4, and 6 hr post MCAO. BQ-788 (1 mg/kg, IV) was administered once 15 min prior to the first injection of IRL-1620 or vehicle.

[2] = system: Aβ treated non-diabetic and diabetic rats; test: Morris water maze test for cognitive impairment in Aβ treated rats; type: in vivo, Sprague-Dawley rats
Procedure: Amyloid-β (1-40) (Tocris Bioscience, Ellisville, Mo., USA), IRL-1620 [N-Succinyl-[Glu9, Ala11,15] endothelin 1] (American Peptide Co, Inc., Sunnyvale, Calif., USA) and BQ788 (American Peptide Co, Inc., Sunnyvale, Calif., USA) were dissolved in sterile saline and all the solutions were freshly prepared before injections. Ketamine (Butler Animal Health Supply, Dublin, Ohio, USA) was administered at a dose of 100 mg/kg, intraperitoneally (i.p.), and xylazine (Lloyd Laboratories, Shenandoah, Iowa, USA) was administered at a dose of 10 mg/kg, i.p. Rats were anesthetized with ketamine (100 mg/kg) and xylazine (10 mg/kg) and a lateral cerebral ventricle was cannulated by placing the rat in a stereotaxic (David Kopf Instruments, Tujunga, Calif., USA) instrument and fixing the cannula (coordinates: 1.0 mm lateral, 1.5 mm caudal to bregma and 4.0 mm deep from the bone). Cannula (Plastics One, Roanoke, Va., USA) was anchored with dental acrylic to three screws placed in the skull. The animals were allowed to recover from surgery for at least seven days. After 7 days, rats were treated with vehicle, Aβ (1-40), ETB receptor agonist and/or antagonist in the lateral cerebral ventricles using the implanted cannula. Vehicle, Aβ or ETB receptor agonist and antagonist were injected in a volume of 5 μl over a period of 5 minutes. Aβ (1-40) was used because it is highly soluble compared to Aβ (1-42) and induces endothelial dysfunction of both cerebral and systemic blood vessels in addition to memory deficit (Nitta et al., 1994; Niwa et al., 2000; Smith et al., 2004; Weller et al., 1998). Agents were delivered using 10 μl Hamilton syringe and agent treatments were carried out individually using separate 10 μl syringe. IRL-1620 was administered 1 hour after Aβ injection whereas BQ788 was administered 15 minutes prior to IRL-1620 injection. At the end of the experiment, placement of cannula was confirmed by injecting methylene blue dye (5 μl) and observing the site and extent of staining. All experiments were performed on day 15 (Briyal et al., 2011). Water maze testing was performed from day 15 to day 19 after which animals were euthanized. Animals used for oxidative stress measurements were euthanized on day 15 without being subjected to any behavioral testing. Diabetes mellitus type 2 was induced in rats belonging to the diabetic group by administering freshly prepared streptozotocin at the dose of 45 mg/kg, i.p. Streptozotocin was dissolved in 0.01 M sodium citrate buffer of pH 4.3. On day 3, blood glucose was obtained from the rat-tail and tested for hyperglycemia using the SureStep Complete Blood Glucose monitor kit. Rats with blood glucose levels above 11.1 mM were considered diabetic. Diabetic and non-diabetic animals were randomly divided into five groups (6 rats per group) (i) Sham, (ii) Aβ+Vehicle, (iii) Aβ+IRL-1620, (iv) Aβ+BQ788 (v) Aβ+BQ788+IRL-1620. Aβ (1-40) was administered intracerebroventricularly (i.c.v.) (20 μg in 3 equally divided doses i.e. 6.67 μg were injected 3 times for a total of 20 μg dose) on day 1, 7, and 14. Specific ETB receptor agonist, IRL-1620 (3 μg) and specific ETB receptor antagonist, BQ788 (10 μg) were administered i.c.v. daily for 14 days starting from day 1 of Aβ injection. The doses of IRL-1620 and BQ788 were selected on the basis of previous studies conducted in our laboratory (Leonard et al., 2011).
Spatial learning and memory of animals were tested in a MWM (Morris, 1984). […]

[3] = system: middle cerebral artery occluded rats; details: acute study, 24 hours (Leonard et al., 2011); cited from earlier work
normal rats = details: intravenous; cited from earlier work

Compound	Edema ([1]; MCAO 7 days, BQ-788 followed by IRL-1620)	Edema ([1]; MCAO 7 days, BQ-788 followed by vehicle)	Infarct volume ([1]; MCAO 7 days, BQ-788 given with either vehicle or IRL-1620)	Improvement in escape latency produced by IRL-1620 ([2]; Aβ rats, BQ788 given with IRL-1620)	Time spent in the target quadrant, probe trial ([2]; Aβ treated rats given BQ788)	Edema: infarcted hemisphere larger than non-infarcted hemisphere ([1]; MCAO 7 days)	Infarct volume ([1]; MCAO for 7 days, IRL-1620 5 μg/kg IV at 2, 4, 6 hr post MCAO)	Reduction of infarct volume ([1]; chronic study, 1 week (Leonard et al., 2012))	Reduction of infarct volume [3]	Escape latency, water maze acquisition ([2]; Aβ treated rats, day 3 and 4 of training, vs Aβ + vehicle)	Path length, water maze acquisition ([2]; Aβ treated rats, vs vehicle group)	Time spent in the target quadrant, probe trial ([2]; Aβ treated rats, vs vehicle treated Aβ rats)	Cerebral blood flow (CBF) (normal rats)
CCCC[C@@H](NC(=O)[C@@H](Cc1cn(C(=O)OC)c2ccccc12)NC(=O)[C@H](CC(C)(C)C)NC(=O)N1[C@H](C)CCC[C@@H]1C)C(=O)O [BQ788, reference compound]	17.97±5.17%	17.02±3.17%	did not reduce	blocked	did not produce any improvement	–	–	–	–	–	–	–	–
Suc-Asp-Glu-Glu-Ala-Val-Tyr-Phe-Ala-His-Leu-Asp-Ile-Ile-Trp (Suc-DEEAVYFAHLDIIW) [IRL-1620]	–	–	–	–	–	1.51±1.81%	54.06±14.12 mm^3	69.49%	83.66%	decreased significantly	shorter path lengths	increased	significant elevation
